Measured values reported in patent publication US20210048443A1, “METHOD FOR DIAGNOSING HAEMOSTASIS DISORDERS USING ACTIVATED CHARCOAL” (UNIVERSITÉ DE NAMUR ASBL, priority 2018, published 2021).

What was measured:
platelet-poor plasma [1] = assay: activated Partial Thromboplastin Time (aPTT) assay on plasma with DOACs; format: biochemical; settings: for Effect on aPTT of platelet-poor plasma: increasing concentrations of DOACs, no charcoal (FIG. 2a)
Method: (§1) Standard tests for in vitro diagnosis of a haemostasis disorder, for example in hospital laboratories, are generally performed on plasma samples obtain from a patient. For the preparation of such plasma samples, blood components of a blood sample from a patient are typically separated by two centrifugation steps, both at 2500 g for 15 min (FIG. 1). The first centrifugation step will separate the blood in solid substances (e.g. red and white blood cells) (i.e. the lower phase) and blood plasma (i.e. upper phase). Subsequently, the blood plasma is collected and submitted to a second centrifugation step, which pelletizes the residual blood cells and/or platelets. The upper phase obtained by the second centrifugation step (i.e. platelet-poor plasma) can be used for haemostatic tests. However, the platelet-poor plasma obtained by standard methods will comprise direct anticoagulants (e.g. DOACs), if the patient is treated therewith, which may interfere with several clotting times tests (Table 1).
(§2) A blood sample obtained from a subject was centrifuged at 2500 g during 15 min to separate the blood into solid substances (e.g. red and white blood cells) (i.e. lower phase) and blood plasma (i.e. upper phase).
The plasma obtained from the first (and only) centrifugation step was incubated with activated charcoal (10 mg/ml of plasma) for 5 minutes and the plasma was subsequently recovered from the activated charcoal by passing the plasma through a filter with 0.65 μm pores (FIG. 3). Passing the plasma through the filter was achieved by a short centrifugation. The filter with 0.65 μm pores allowed to efficiently remove the activated charcoal and residual blood cells and/or platelets, which have a larger size than 0.65 μm, from the plasma with a minimal interference with blood coagulation tests.
(§3) Plasma was obtained by centrifuging once a blood sample obtained from a subject as described in Example 2. The plasma sample was incubated with different concentrations of activated charcoal (i.e. 5 mg/ml, 10 mg/ml or 15 mg/ml) for 5 minutes and the plasma was subsequently recovered from the activated charcoal by passing the plasma through a filter with 0.65 μm pores and activated charcoal by a short centrifugation.

PT/clotting factors = assay: PT/clotting factors, interference of direct oral anticoagulants; format: biochemical; settings: arrow grades, key not given; all factors affected
Source text: (§4) Coagulation tests or assays most affected by the presence of anticoagulants in the plasma sample will be the tests that involve the clotting factor to which the coagulation inhibitor is directed, leading to false-positive or false-negative results (Table 1).

aPTT/clotting factors = assay: aPTT/clotting factors, interference of direct oral anticoagulants; format: biochemical; settings: arrow grades, key not given; all factors affected
Source text: as §4

platelet-poor plasma [2] = assay: Prothrombin Time (PT) assay on plasma with DOACs; format: biochemical; settings: for Effect on PT of platelet-poor plasma: increasing concentrations of DOACs, no charcoal (FIG. 2b)
Method: as §1, with “For” for “Standard tests for in vitro diagnosis of a haemostasis disorder, for example in hospital laboratories, are generally performed on plasma samples obtain from a patient. For”
as §2
The plasma obtained from the first (and only) centrifugation step was incubated with activated charcoal (10 mg/ml of plasma) for 5 minutes and the plasma was subsequently recovered from the activated charcoal by passing the plasma through a filter with 0.65 μm pores (FIG. 3). Passing the plasma through the filter was achieved by a short centrifugation.
as §3, with “The” for “Plasma was obtained by centrifuging once a blood sample obtained from a subject as described in Example 2. The”

APCR = APCR (activated protein C resistance) assay, interference of direct oral anticoagulants; format: biochemical; settings: for Interference with APCR: arrow grades, aPTT-based assays are mostly affected
Source text: as §4

Protein S activity = Protein S activity assay, interference of direct oral anticoagulants; format: biochemical; settings: arrow grades; antigen-based assay unaffected, clot-based affected
Source text: as §4

Antithrombin activity = Antithrombin activity assay, interference of direct oral anticoagulants; format: biochemical; settings: arrow grades
Source text: as §4

Lupus anticoagulant = Lupus anticoagulant test, interference of direct oral anticoagulants; format: biochemical; settings: arrow grades; false positive due to high screen/confirmation assay ratios
Source text: as §4

patient's plasma = assay: LA diagnostic assays (PTT LA, Staclot LA, DRVVT, DRVVT confirm) on patient's plasma; format: biochemical; settings: platelet-poor plasma of patient treated with rivaroxaban (339 ng per ml), DRVVT confirm (FIG. 6)
Method: The efficacy of the method as disclosed herein was assessed in a clinical situation. […] For LA diagnosis, several in vitro diagnosis assays were performed on the patient's plasma, including Partial Thromboplastin Time-Lupus anticoagulant Screen (PTT LA), PTT LA confirm (Staclot LA), Dilute Russel Viper Venom Time screen (DRVVT) and DRVVT confirm.

[3] = human, in vivo
Protein C activity = Protein C activity assay, interference of direct oral anticoagulants; format: biochemical; settings: arrow grades; chromogenic and antigen-based assays unaffected, clot-based affected
Source text: as §4

rivaroxaban per ml of plasma in patient plasma sample [3] [ng per ml] | SMILES | Effect on aPTT of platelet-poor plasma (platelet-poor plasma [1]) | Interference with PT/clotting factors (PT/clotting factors) | Interference with aPTT/clotting factors (aPTT/clotting factors) | Effect on PT of platelet-poor plasma (platelet-poor plasma [2]) | Interference with APCR (APCR) | Interference with Protein S activity (Protein S activity) | Interference with Antithrombin activity (Antithrombin activity) | Interference with Lupus anticoagulant (Lupus anticoagulant) | Interference with Pefakit APCR Factor V Leiden (APCR; Pefakit APCR Factor V Leiden kit) | Effect of Rivaroxaban on aPTT after activated charcoal treatment (platelet-poor plasma [1]; activated charcoal 5, 10 or 15 mg/ml, 5 minutes, 0.65 μm filter, Rivaroxaban up to 1000 ng/ml (FIG. 5a)) | Clotting time in LA diagnostic assays, untreated plasma (patient's plasma) | Interference with Protein C activity (Protein C activity) | Effect of Rivaroxaban on PT after activated charcoal treatment (platelet-poor plasma [2]; activated charcoal 5, 10 or 15 mg/ml, 5 minutes, 0.65 μm filter, Rivaroxaban up to 1000 ng/ml (FIG. 5b))
 | COc1ccc(NC(=O)c2ccc(C(=N)N(C)C)cc2)c(C(=O)Nc2ccc(Cl)cn2)c1 [Betrixaban] | prolonged | ↓↓ | ↓↓ | prolonged |  |  |  |  |  |  |  |  | 
 | CN1CCc2nc(C(=O)N[C@@H]3C[C@@H](C(=O)N(C)C)CC[C@@H]3NC(=O)C(=O)Nc3ccc(Cl)cn3)sc2C1 [Edoxaban, N′-(5-chloropyridin-2-yl)-N-[(1S,2R,4S)-4-(dimethylcarbamoyl)-2-[(5-methyl-6,7-dihydro-4H-[1,3]thiazolo[5,4-c]pyridine-2-carbonyl)amino]cyclohexyl]oxamide] | prolonged | ↓↓ | ↓/↓↓ |  | ↑ | ↑ | —/↑ | ↑/↑↑ |  |  |  |  | 
339 | O=C(NC[C@H]1CN(c2ccc(N3CCOCC3=O)cc2)C(=O)O1)c1ccc(Cl)s1 [Rivaroxaban, 5-Chloro-N-({(5S)-2-oxo-3-[4-(3-oxo-4-morpholinyl)phenyl]-1,3-oxazolidin-5-yl}methyl)-2-thiophenecarboxamide] | prolonged | ↓↓/↓↓↓ | ↓↓ | prolonged | ↑ | —/↑ | —/↑ | ↑/↑↑ | No interference | completely removed | prolongs the clotting time | —/↑ | completely removed
 | COc1ccc(-n2nc(C(N)=O)c3c2C(=O)N(c2ccc(N4CCCCC4=O)cc2)CC3)cc1 [Apixaban, 1-(4-methoxyphenyl)-7-oxo-6-[4-(2-oxopiperidin-1-yl)phenyl]-4,5-dihydropyrazolo[3,4-c]pyridine-3-carboxamide] | prolonged | ↓/↓↓ | ↓/↓↓ | prolonged | ↑ | —/↑ | —/↑ | —/↑ |  |  |  | —/↑ | 
